Data taken from patent publication US6265443A, “Method for treating neuronal injury with carboxyfullerene” (priority 1997, dated 2001).
Entries after “also recorded” stand apart in the source; their conditions may differ.

Tests used:
[1] = EPR free radical scavenging (hydroxyl and superoxide); settings: for anti-oxidant potency, isomers compared: EPR analysis
Method: FIGS. 9A and 9B show the EPR spectra of OH (from 100 μM H2 O2 in Fe^2+ by the Fenton reaction) and O2 - (from xanthine+xanthine oxidase) radicals with 100 mM 5,5-dimethyl-1-pyrolline-N-oxide (DMPO) as the spin-trapping agent. Hydroxyl radical (FIG. 9A): OH in the presence of […] alone (top), in the presence of 4 mM O-3a (middle), or in the presence of 4 mM R-3b (bottom). Superoxide radical (right): O2 - in DMPO alone (top), in the presence of 400 mM O-3a (middle), in the presence of 400 mM R-3b (bottom). […] The sample was analyzed in a quartz flat cell (60×10×0.25 mm) in a Bruker 200, X-band EPR spectrometer. Settings were power=1.6 mW, modulation=1 G, field modulation=100 Hz, R.G.=3.2×10^5.

[2] = Spin-label/EPR membrane parameters (5- or 16-doxyl ketostearic acid in brain lipids); design: species or system mouse; settings: 16-doxylstearic acid; control 0.8
Method: Values are mean±SEM, n=8-12 per condition. I=p<0.05 vs. untreated injury condition, using ANOVA followed by Student-Newman-Keuls test for multiple comparisons. **=p<0.05 R-3b different than O-3a. […] The spin labels were added to lipids extracted from adult mouse brain at a ratio of 1:100. EPR settings were the same as those listed in the legend for FIGS. 9A and 9B.
^a Order parameter, S = a(T_.cent. - T .cent.)/(T - T ),
^b Correlation time, tc = 6.5 × 10^-10 wo [(ho
^c Lipid/aqueous partition factor, f = hL /hA, where hL

cortical neurons [3] = test: Neuroprotection, general statement; type: cell-based, mouse
Method: (§1) Mouse embryos (gestational day 15) are removed from pregnant anesthetized Swiss-Webster mice, and the neocortex is dissected away from other brain structures. After brief incubation in trypsin, the cells are dissociated by trituration, and the cell suspension is then diluted into plating medium and plated onto previously-prepared 24-well Plastek culture plates coated with poly-D-lysine/laminin (for neuronal cultures) or onto an existing bed of astrocytes (for co-cultures). After 1-2days in vitro, a partial exchange with glial conditioned medium is made for "pure" neuronal cultures, and cytosine arabinoside (3 μM) is added immediately after feeding to inhibit glial proliferation. Mixed cultures are fed biweekly with growth medium until 11-12 days in vitro, when they are fed with serum-free MS containing 2 mM L-glutamine. Unless otherwise stated, cells were used at 14-16 days in vitro.

[4] = EPR spin-trap (DMPO) superoxide radical scavenging, xanthine + xanthine oxidase; settings: xanthine oxidase with xanthine
Method: (§2) FIGS. 9A and 9B show the EPR spectra of OH (from 100 μM H2 O2 in Fe^2+ by the Fenton reaction) and O2 - (from xanthine+xanthine oxidase) radicals with 100 mM 5,5-dimethyl-1-pyrolline-N-oxide (DMPO) as the spin-trapping agent. Hydroxyl radical (FIG. 9A): OH in the presence of […] alone (top), in the presence of 4 mM O-3a (middle), or in the presence of 4 mM R-3b (bottom). Superoxide radical (right): O2 - in DMPO alone (top), in the presence of 400 mM O-3a (middle), in the presence of 400 mM R-3b (bottom). The arrow designates a spurious signal due to an unknown radical in the cavity. The sample was analyzed in a quartz flat cell (60×10×0.25 mm) in a Bruker 200, X-band EPR spectrometer. Settings were power=1.6 mW, modulation=1 G, field modulation=100 Hz, R.G.=3.2×10^5.

[5] = EPR spin-trap (DMPO) hydroxyl radical scavenging; settings: for scavenging of OH: EPR
Method: as §2

[6] = native C60; toluene or benzene; cited from earlier work
hepatocytes = test: Protection in hepatocytes; type: cell-based
cortical neurons [7] = test: NMDA-induced excitotoxic neuronal death in neuron-astrocyte co-cultures (LDH efflux); type: cell-based, mouse
Method: as §1
Carboxyfullerene (3-300 (M) was co-applied to neuron-astrocyte co-cultures described above with NMDA for assessment of neuroprotection. Brief exposure to NMDA in the presence of the carboxyfullerene was carried out by triple exchange of the medium with HBBSS, followed by addition of 50 μM-500 μM NMDA plus carboxyfullerene for 10 minutes. The NMDA and carboxyfullerene were removed by quadruple exchange of the medium with MS, and the cultures were placed in the humidified, CO2 (5%), 37° C. incubator for 24 hours, when the extent of injury was assessed.

cortical neurons [8] = test: AMPA-induced excitotoxic neuronal death in neuron-astrocyte co-cultures (LDH efflux); type: cell-based, mouse
Method: as §1

[9] = system: endothelial cell cultures; test: Protection in endothelial cell cultures; type: cell-based
Solubility = type: physicochemical
Source text: Solutions of carboxyfullerene were translucent brown.

wild-type animals = settings: mouse, in vivo, 15 mg/kg/day
Source text: The 8 day increase in survival reached statistical significance (p=0.041), by t-test. There was no difference in survival for FALS mice who received no pumps (123 days, n=4) or those treated with saline-filled pumps (125 days, n=6).

cortical neurons [10] = test: Serum deprivation apoptotic neuronal death (trypan blue); type: cell-based, mouse
Method: as §1

FALS mice = test: Survival in transgenic model of ALS (FALS mice, Gurney G1 strain); type: in vivo, mouse; settings: 15 mg/kg/day, intraperitoneal mini-osmotic pumps
Method: The G1 line, with 18 copies and 4 times the SOD activity of wildtype animals, develops motor neuron death by 3-4 months of age, with hindlimb weakness, impaired grooming, and thinning along their flanks. Affected mice were dead before 5 months of age (Gurney et al., 1994).
C60 (C(COOH)2)3 was used to treat FALS mice (Gurney G1 strain) to determine its ability to treat FALS. At 10 weeks of age, Alzet mini-osmotic pumps (28 day, 6 (l/day, 15 mg/kg/day) containing C60 (C(COOH)2)3 (the mixed isomers, which consist of >90% O-3a) or saline were implanted intraperitoneally. The pumps were replaced at 14 weeks of age. Videotaped assessments of open field walking were performed and scored using the Bresnahan scale for spinal cord injury (Basso et al, 1995). As reported by Gurney and colleagues, these animals develop motor symptoms by approximately 90 days of age, and are moribund between 125 and 145 days of age.

NMDA receptor = test: NMDA-stimulated 45Ca2+ accumulation in cultured neurons; type: cell-based, mouse; settings: up to 300 (M [µM], with NMDA 300 (M, 10 min
Method: as §1, with “Mouse neocortical cultures were prepared as neuron-astrocyte co-cultures (approximately 50% astrocytes) (Rose et al., 1992) or as neuronal cultures (<2% astrocytes). Mouse” for “Mouse”
To verify that protection against NMDA-induced neuronal cell injury was not due to a reduction in NMDA-induced calcium influx, ^45 Ca^2+ tracer studies were performed. […]

Molecule: O=C(O)C1(C(=O)O)C23c4c5c6c7c8c9c%10c%11c%12c%13c%14c%15c(c6c6c4c4c%16c%17c%18c(c%19c%20c2c5c8c2c%20c5c%19c8c%19c%20c(c%21c%12c%12c%22c%23c(c(c%188)C%198C(C(=O)O)(C(=O)O)C%21%228)c%17c8c4c6c%15c(c%12%14)c%238)c%11c(c92)c%205)C%1613)C71C(C(=O)O)(C(=O)O)C%13%101 (stereo not shown) [R-3b]
- anti-oxidant potency, isomers compared [1]: equipotent anti-oxidants
- Lipid/aqueous partition factors [2]: 0.6
- neuroprotection (cortical neurons [3]): effective neuroprotectant
- superoxide radical signal (DMPO-OOH) [4]: eliminated the superoxide radical signal
- scavenging of OH [5]: extremely potent scavengers of OH

Molecule: c12c3c4c5c1c1c6c7c2c2c8c3c3c9c4c4c%10c5c5c1c1c6c6c%11c7c2c2c7c8c3c3c8c9c4c4c9c%10c5c5c1c1c6c6c%11c2c2c7c3c3c8c4c4c9c5c1c1c6c2c3c41 [C60, Buckminsterfullerene]
- solubility (solvents) [6]: soluble only in a limited number of solvents, such as toluene or benzene

Molecule: O=C(O)C1(C(=O)O)C23c4c5c6c7c8c4-c4c2c2c9c%10c%11c%12c(c-5c5c%13c%14c%15c%16c%17c(c-7c7c%18c%19c%20c%21c(c4C%204C(C(=O)O)(C(=O)O)C874)c2c2c9c4c%11c7c(c%13%12)c%14c8c%16c9c(c%18%17)c%19c%11c%21c2c2c4c7c8c9c%112)C%152C(C(=O)O)(C(=O)O)C652)C%1013 (stereo not shown) [O-3a]
- anti-oxidant potency, isomers compared [1]: equipotent anti-oxidants
- protection from injury in hepatocytes vs R-3b (hepatocytes): enhanced protection over R-3b
- protection from NMDA injury vs R-3b (cortical neurons [7]; FIG. 10A, n=8-12 per condition): slightly better protection
- Lipid/aqueous partition factors [2]: 1.0 ± 0.2
- protection against AMPA-induced neuronal death vs R-3b (cortical neurons [8]; FIG. 10B, n=8-12 per condition): substantially better protection
- superoxide radical signal (DMPO-OOH) [4]: eliminated the superoxide radical signal
- protection from injury in endothelial cell cultures vs R-3b [9]: enhanced protection over R-3b
- OH signal (DMPO-OH spin adduct) ([5]; 150 (M [µM], H2O2, 15 minute period): elimination of this OH signal
- scavenging of OH [5]: extremely potent scavengers of OH

Molecule: O=C(O)C1(C(=O)O)C23c4c5c6c7c8c9c(c%10c%11c2c2c4c4c%12c5c5c6c6c8c8c%13c9c9c%10c%10c%11c%11c2c2c4c4c%12c%12c5c5c6c8c6c8c%13c9c9c%10c%10c%11c2c2c4c4c%12c5c6c5c8c9c%10c2c45)C713 [dicarboxy fullerene]
- neuroprotective efficacy vs hexacarboxy derivative (cortical neurons [3]): less effective neuroprotectants
- solubility in aqueous solution vs hexacarboxy derivative (Solubility; aqueous solution): less soluble

Molecule: C60 (C(COOH)2)3
- scavenging ability towards OH vs potency for O2- radicals ([1]; OH over O2-): 10 fold
- body weight vs untreated littermates (wild-type animals): weights were similar
- protection from NMDA, some experiments (cortical neurons [7]; 300 (M [µM]): nearly complete protection
- reduction of neuronal death from NMDA, all experiments (cortical neurons [7]; 300 (M [µM], 24 h after 10 min NMDA, 300 µM): at least 60%
- protection against NMDA excitotoxic injury (cortical neurons [7]; cortical neurons): protected cortical neurons against excitotoxic injury; also recorded: robust neuroprotection
- reduction in neuronal cell death (NMDA), pooled data (cortical neurons [7]; pooled data from three experiments, FIG. 5): 75%
- reduction in neuronal death, serum deprivation (cortical neurons [10]; 10 (M [µM], 48 hours, trypan blue, 10 µM): 50%
- apoptotic neuronal death due to serum deprivation (cortical neurons [10]; co-application): attenuated
- reduction of neuronal cell death from AMPA (cortical neurons [8]; 100 (M [µM], MK-801 10 (M included), 24 h, data from 4 experiments pooled, 100 µM): > 80%
- protection against AMPA excitotoxic injury (cortical neurons [8]; cortical neurons): protected cortical neurons against excitotoxic injury; also recorded: robust neuroprotection
- solubility in water (Solubility; water): at least 50 mM
- onset of symptoms (FALS mice): delay in onset of symptoms
- delay in death (FALS mice; p=0.041 by t-test): 8 ± 2.2 days
- 45Ca2+ accumulation (NMDA receptor): not affected
